{"source": "patent US20250019388A1", "about": "“STAT3 DEGRADERS AND USES THEREOF” (priority 2021, published 2025)", "key": {"Aqueous solubility": {"experiment": "Aqueous solubility", "assay_type": "physicochemical", "description": "Compound A injection was manufactured as a frozen concentrated solution containing 10 mg/mL of free acid intended to be diluted with IV infusion vehicle. It has aqueous solubility greater than 10 mg/mL at pH 4.5 to 9.0 but less than 10 mg/mL at pH less than or equal to 3."}, "SU-DHL-1 cell line": {"tested_on": "SU-DHL-1 cell line", "experiment": "Washout experiments in the SU-DHL-1 cell line", "assay_type": "cell-based, human"}, "STAT3 [1]": {"biological_target": "T1, STAT3 (Rattus norvegicus, UniProt P52631)", "T1 construct": "from tissue", "T1 sequence (P52631 whole entry)": "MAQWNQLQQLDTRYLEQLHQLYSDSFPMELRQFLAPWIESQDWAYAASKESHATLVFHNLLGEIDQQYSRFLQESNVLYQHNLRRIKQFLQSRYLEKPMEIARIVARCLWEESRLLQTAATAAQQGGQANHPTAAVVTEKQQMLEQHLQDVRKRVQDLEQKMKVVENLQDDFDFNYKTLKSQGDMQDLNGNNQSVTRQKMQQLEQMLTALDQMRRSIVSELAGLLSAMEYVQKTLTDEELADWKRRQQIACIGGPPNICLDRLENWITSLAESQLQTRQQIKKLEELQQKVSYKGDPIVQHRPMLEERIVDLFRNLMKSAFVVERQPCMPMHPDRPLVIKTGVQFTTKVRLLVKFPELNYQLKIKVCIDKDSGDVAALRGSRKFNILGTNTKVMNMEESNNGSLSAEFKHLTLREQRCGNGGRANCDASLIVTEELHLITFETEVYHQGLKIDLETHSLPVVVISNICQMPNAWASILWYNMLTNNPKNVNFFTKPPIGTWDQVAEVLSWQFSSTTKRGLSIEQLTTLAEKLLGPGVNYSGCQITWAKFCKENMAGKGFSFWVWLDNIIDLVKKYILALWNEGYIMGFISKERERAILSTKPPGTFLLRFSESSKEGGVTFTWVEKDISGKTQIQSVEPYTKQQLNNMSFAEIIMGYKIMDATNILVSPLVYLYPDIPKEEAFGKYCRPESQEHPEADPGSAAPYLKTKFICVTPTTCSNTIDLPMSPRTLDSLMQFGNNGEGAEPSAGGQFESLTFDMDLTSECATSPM", "experiment": "PK/PD study in rats, STAT3 degradation in tissues", "assay_type": "in vivo", "conditions": "IV administration"}, "STAT3 [2]": {"tested_on": "STAT3", "experiment": "STAT3 degradation potency in hepatocytes", "assay_type": "cell-based", "conditions": "across human, rat, and dog"}, "[3]": {"experiment": "Body weight in SU-DHL-1 xenograft study", "assay_type": "in vivo, NOD SCID mice", "conditions": "IV route, SU-DHL-1 study", "description": "(§1) The antitumor activity of Compound A ammonium hydrogen salt was evaluated in a human SU-DHL-1 cell-line xenograft model established in NOD SCID female mice. Tumor bearing mice (n=5/group) were administered either 0 (vehicle; PBS), 5, 10, 15, or 45 mg/kg Compound A once weekly (QW; Days 0, 7, and 14) or 0 (vehicle; PBS), 10, or 30 mg/kg Compound A once every two weeks (Q2W; Days 0 and 14). Animals administered Compound A QW were monitored until Day 25 post first dose and those administered Compound A Q2W were monitored until Day 71 post first dose."}, "STAT3 [4]": {"biological_target": "T2, STAT3 (Homo sapiens, UniProt P40763)", "T2 sequence (P40763 whole entry)": "as the sequence (P52631 whole entry) above, with D311E, D760E counted along it", "experiment": "STAT3 degradation in human ALCL cell lines SU-DHL-1 and SUP-M2", "assay_type": "cell-based", "conditions": "SU-DHL-1 and SUP-M2 cell lines"}, "caspase 3/7": {"tested_on": "caspase 3/7", "experiment": "Caspase 3/7 activity in ALCL lines", "assay_type": "cell-based, human", "conditions": "at similar concentrations"}, "ALCL cell lines": {"tested_on": "ALCL cell lines", "experiment": "Cellular phenotypic assays (GI50) in ALCL cell lines", "assay_type": "cell-based", "conditions": "Homo sapiens; several ALCL cell lines"}, "SU-DHL-1 xenografts": {"tested_on": "SU-DHL-1 xenografts", "experiment": "Antitumor activity in SU-DHL-1 cell-line xenograft model", "assay_type": "in vivo, NOD SCID mice", "description": "(§2) The antitumor efficacy of Compound A ammonium hydrogen salt was evaluated in immunocompromised mice implanted with human ALCL cell lines SU-DHL-1 and SUP-M2. Protocols for testing STAT3 degraders in human cell line xenograft models can be found, for example, in WO 2020/206424, incorporated herein by reference.\nas §1"}, "[5]": {"experiment": "Phase 1 study, safety and tolerability", "assay_type": "in vivo, human", "conditions": "patients, DL1", "description": "Rationale: Targeted protein degraders represent a new therapeutic class of compounds that utilize the ubiquitin proteasome system to target the specific degradation of proteins. Compound A is a protein degrader that targets signal transducers and activators of transcription (STAT)3, a transcription factor that plays an important role in hematological malignancies such as lymphomas and in solid tumors. Compound A is administered via intravenous infusion (IV) at the dose levels defined in the protocol on Days 1, 8, 15, and 22 of each 28-day cycle.\nPatients who provide informed consent and meet the eligibility criteria for the study will be enrolled and treated with Compound A IV on Days 1, 8, 15, and 22 of a 28-day cycle. Patients will remain on study treatment until disease progression, unacceptable toxicity, withdrawal of consent, any study-specific discontinuation criteria are met, or the Investigator determines that it is in the best interest of the patient to discontinue study treatment.\nPhase 1a: This part aims to characterize the safety and tolerability of IV weekly doses of Compound A in sequential cohorts. […]"}, "[6]": {"tested_on": "other STAT family members or other cellular proteins", "experiment": "Proteome wide assessment in PBMC", "assay_type": "cell-based"}, "[7]": {"experiment": "Body weight in SUP-M2 xenograft study", "assay_type": "in vivo, NOD SCID mice", "conditions": "IV route", "description": "(§3) The antitumor activity of Compound A ammonium hydrogen salt was evaluated in a human SUP-M2 cell-line xenograft model established in NOD SCID female mice. Tumor bearing mice (n=5/group) were administered either 0 (vehicle; PBS), 10, 20, or 30 mg/kg Compound A QW (Days 0, 7, and 14), 10 or 20 mg/kg Compound A on a 2 days on/5 days off schedule (Days 0, 1, 7, 8, 14, and 15), or 0 (vehicle; PBS), 20, or 40 mg/kg Compound A Q2W (Days 0 and 14). Animals administered Compound A QW or 2 on/5 off were monitored until Day 25 post first dose, and those administered Compound A Q2W were monitored until Day 52 post first dose."}, "STAT3 [8]": {"biological_target": "T2, STAT3", "experiment": "Phase 1 study, STAT3 degradation in blood (PBMCs)", "assay_type": "in vivo", "set-up": "Observed STAT3 degradation of 50-80% in PBMCs at Dose Level 1; from tissue; host or cells: blood / PBMCs of patients dosed IV with Compound A", "conditions": "patients", "text": "Rationale: Targeted protein degraders represent a new therapeutic class of compounds that utilize the ubiquitin proteasome system to target the specific degradation of proteins."}, "STAT3 [9]": {"biological_target": "T2, STAT3", "experiment": "STAT3 degradation in tumor, SU-DHL-1 tumor xenograft murine model", "assay_type": "in vivo, mice", "set-up": "from tissue; host or cells: SU-DHL-1 xenograft tumour in immunocompromised mice", "conditions": "10 mg/kg QW; observed for 48 hrs"}, "SUP-M2 xenografts": {"tested_on": "SUP-M2 xenografts", "experiment": "Antitumor activity in SUP-M2 cell-line xenograft model", "assay_type": "in vivo, NOD SCID mice", "conditions": "for tumor regression: 2 day on/5 days off", "description": "as §2, §3"}}}
{"smiles": "CC(=O)N1CC[C@H]2CC[C@@H](C(=O)N[C@@H](CCC(N)=O)COc3cccc(CCCC(=O)N[C@H](C(=O)N4C[C@H](O)C[C@H]4C(=O)N[C@@H](C)c4ccc(-c5scnc5C)cc4)C(C)(C)C)c3Cl)N2C(=O)[C@@H](NC(=O)c2cc3cc(C(=O)P(=O)(O)O)ccc3[nH]2)C1", "note": "[Compound A, (2-(((5S,8S,10aR)-3-acetyl-8-(((S)-5-amino-1-(2-chloro-3-(4-(((S)-1-((2S,4R)-4-hydroxy-2-(((S)-1-(4-(4-methylthiazol-5-yl)phenyl)ethyl)carbamoyl)pyrrolidin-1-yl)-3,3-dimethyl-1-oxobutan-2-yl)amino)-4-oxobutyl)phenoxy)-5-oxopentan-2-yl)carbamoyl)-6-oxodecahydropyrrolo[1,2-a][1,5]diazocin-5-yl)carbamoyl)-1H-indole-5-carbonyl)phosphonic acid]", "values": [{"measurement": "solubility", "setting": "Aqueous solubility; aqueous buffer, pH 4.5 to 9.0", "result": "> 10000", "unit": "µg/mL"}, {"measurement": "solubility", "setting": "Aqueous solubility; pH 3, aqueous buffer, pH less than or equal to 3", "result": "< 10000", "unit": "µg/mL"}, {"measurement": "duration of sustained STAT3 degradation after which irreversible growth inhibition occurred", "setting": "SU-DHL-1 cell line", "result": "approximately 48 hr"}, {"measurement": "degradation of STAT3 protein in tissues", "setting": "STAT3 [1]", "result": "significant degradation of STAT3 protein in multiple tissues"}, {"measurement": "degradation potency of STAT3 in hepatocytes", "setting": "STAT3 [2]", "result": "comparable degradation potency"}, {"measurement": "body weight change", "setting": "[3]", "result": "slight to moderate body weight increases"}, {"measurement": "STAT3 degradation (concentration)", "setting": "STAT3 [4]", "result": "≤ 11.8 ± 2.3", "unit": "nM"}, {"measurement": "caspase 3/7 activity, a marker of apoptosis", "setting": "caspase 3/7", "result": "induced caspase 3/7 activity"}, {"measurement": "GI50", "setting": "ALCL cell lines", "result": "8.1 to 57.4", "unit": "nM"}, {"measurement": "tumor growth inhibition (TGI)", "setting": "SU-DHL-1 xenografts; 5 mg/kg QW IV", "result": 79.9, "unit": "%"}, {"measurement": "TGI", "setting": "SU-DHL-1 xenografts; 10 mg/kg Q2W IV", "result": 89.8, "unit": "%"}, {"measurement": "tumor regression", "setting": "SU-DHL-1 xenografts; 10 mg/kg QW IV", "result": "complete regression"}, {"measurement": "tumor regression", "setting": "SU-DHL-1 xenografts; 15 mg/kg QW IV", "result": "complete regressions"}, {"measurement": "TGI", "setting": "SU-DHL-1 xenografts; 30 mg/kg Q2W IV", "result": 99.8, "unit": "%"}, {"measurement": "tumor regression", "setting": "SU-DHL-1 xenografts; 30 mg/kg Q2W IV, all animals", "result": "complete tumor regressions"}, {"measurement": "tumor regression", "setting": "SU-DHL-1 xenografts; 45 mg/kg QW IV", "result": "complete regressions"}, {"measurement": "safety and tolerability (DLTs, SAEs)", "setting": "[5]", "result": "safe and well-tolerated with no DLTs or SAEs"}, {"measurement": "selectivity of degradation", "setting": "[6]", "result": "does not degrade other STAT family members or other cellular proteins"}, {"measurement": "body weight change", "setting": "[7]", "result": "little to slight body weight increases"}, {"measurement": "time of maximal STAT3 degradation post infusion", "setting": "STAT3 [8]; DL1, Cycle 1 weeks 1 & 2", "result": "24 to 96", "unit": "h"}, {"measurement": "STAT3 degradation in PBMCs", "setting": "STAT3 [8]; Dose Level 1", "result": "50-80%"}, {"measurement": "duration of target degradation", "setting": "STAT3 [8]; first dose level", "result": "At least 72 h"}, {"measurement": "maximum STAT3 knockdown in blood", "setting": "STAT3 [8]; first dose level", "result": "up to 86%"}, {"measurement": "mean maximum STAT3 degradation in blood", "setting": "STAT3 [8]; first dose level (DL1, 0.05 mg/kg IV), following first 2 doses of Cycle 1", "result": 66, "unit": "%"}, {"measurement": "STAT3 degradation in tumor", "setting": "STAT3 [9]", "result": "greater than 90%"}, {"measurement": "TGI", "setting": "SUP-M2 xenografts; 10 mg/kg QW IV", "result": 83.8, "unit": "%"}, {"measurement": "tumor regression", "setting": "SUP-M2 xenografts; 10 mg/kg", "result": "complete tumor regression in all animals"}, {"measurement": "animals with complete tumor regression", "setting": "SUP-M2 xenografts; 20 mg/kg Q2W", "result": "4 of 5"}, {"measurement": "animals with complete tumor regression", "setting": "SUP-M2 xenografts; 20 mg/kg QW IV", "result": "4 of 5"}, {"measurement": "tumor regression", "setting": "SUP-M2 xenografts; 20 mg/kg", "result": "complete tumor regression in all animals"}, {"measurement": "animals with complete tumor regression", "setting": "SUP-M2 xenografts; 30 mg/kg QW IV", "result": "5 of 5"}, {"measurement": "animals with complete tumor regression", "setting": "SUP-M2 xenografts; 40 mg/kg Q2W", "result": "5 of 5"}]}
